Measurements reported in patent US20190337971A1, “PANTETHEINE DERIVATIVES FOR THE TREATMENT OF NEUROLOGIC DISORDERS” (Retrophin, Inc., priority 2016, published 2019).
Like-named read-outs stand apart in the source and are kept apart here.

What was measured:
[1] = Stability in human whole blood; type: in vitro ADME; details: 37° C., up to 60 min
Method: The stability of selected compounds in human whole blood was evaluated according to the following protocol. Compounds and positive control samples were dissolved in 100% DMSO at 3 mM (stock solution). To investigate the stability of the test compounds in whole blood, a 200 μM working solution (WS) in water has been prepared by adding 66.66 μl of each 3 mM stock solution to 933.34 μl of water (6.66% DMSO content). After pre-incubation of the whole blood at 37° C. for 5 min in an eppendorf, 10.5 μl of each working solution were spiked into 689.5 μl of heated blood. The obtained 3 μM solution in blood (0.1% DMSO content) was quickly stirred and 100 μl for each time point were transferred to an eppendorf. Each compound was tested in duplicate at five time points (10, 20, 30, 40 and 60 min). At each time point, the reaction was stopped by quenching the spiked blood (100 μl) with 400 μl of 100% acetonitrile containing 0.1% formic acid. Then samples were centrifuged at 15600 rpm for 15 min at +4° C. and 200 μl of supernatant were transferred to a 96-deepwell plate. Samples were evaporated under N2 and reconstituted in H2O/ACN 0.1% formic Acid (98/2 v/v) containing the appropriate internal standard. Analysis was performed without a calibration curve by using an Acquity-UPLC (Waters) coupled to a triple quadrupole mass spectrometer (SciexAPI4000). Time point 0 was obtained by adding 3 μL of each 200 μM working solution to 997 μL of the supernatant obtaining after centrifugation (15600 rpm for 15 min at +4° C.) of the blank matrix quenched with acetonitrile containing 0.1% formic acid.
Stability was determined based on analysis of disappearance of the compounds as a function of incubation time. Quantification of test compounds was measured as a peak area relative to an internal standard. The elimination constant k and half-life (t1/2) were determined as described above in Example 7.

PANK2−/− IMR32 cells = experiment: Coenzyme A assay in PANK2 silenced cells (LC-MS quantification of free CoA); type: cell-based, human; details: Homo sapiens, IMR-32, fold increase in CoA levels relative to controls, treated twice, 24 h + 24 h; for fold induction at 50 µM: compound concentration 50 uM; for fold induction at 1 µM: compound concentration 1 uM
Method: A human neuroblastoma IMR32 cell line (ATCC) with stably PANK2 silencing was obtained by lentiviral-delivered small hairpin RNA and cultured in MEM (Invitrogen) supplemented with 10% fetal bovine serum, 2 mM glutamine, 1% penicillin-streptomycin, 1 mM sodium pyruvate, 1 mM non-essential amino acids, and 1.5 g/l sodium bicarbonate.
A non-silencing shRNA construct (scrambled shRNA) and an empty vector expressing GFP alone were used as negative controls. The GFP tag subcloned into the lentiviral vectors was used to monitor the transfection efficiency.
Three days after transduction medium was removed and replaced with fresh medium containing […] puromycin. […] The level of PANK2 expression in selected clones was assessed by Western Blot analysis.
To quantify CoA, PANK2−/− IMR32 cells were plated on 12-well culture plates (Corning) at a density of 0.2×10^6 cells per well. […] Controls with medium containing 0.1% DMSO without test compounds were also included in each plate. […] Before LC-MS analysis of CoA levels, cells were harvested, counted, and collected in a 15 ml falcon tube and centrifuged at 200×g for 5 min at 4° C. Supernatant was removed and cell pellet was washed in 10 ml of ice-cold PBS. To further confirm that the numbers of cells in each sample were equivalent, an equal fraction of pellet was collected from each sample and subjected to protein determination analysis. After centrifugation and supernatant removal, the cell pellet was rapidly frozen in Liquid Nitrogen and stored at −80° C. until analysis.
Intracellular CoA levels were calculated considering an intracellular volume of 1 million cells=2 μl.
The 1*10^6 cellular pellet was extracted with 120 μl of aqueous 20% TFA.
100 μL samples of supernatant were dried under N2 at 20° C. in the dark.
Samples were re-dissolved in 100 μl of 10 mM NH4^+ AcO^− buffer pH 5.1+IS (Dextrorphan 50 ng/ml), stirred for 2 min, sonicated in ultrasonic bath for 1 min, then stirred again for 1 min, and injected into LC-MS.
LC-MS/MS was performed using an Agilent HPLC (1100 Series, USA). The LC system was interfaced with an API-4000 Q-Trap triple quadrupole mass spectrometer (AB Sciex, Toronto, Canada) equipped with a TurboIonSpray ionization source operating in positive ion mode. Analyst™ software version 1.6 (AB Sciex, Toronto, Canada) was used for data acquisition and processing. CoA was separated using a Luna C18 column (2.0×50 mm; 5 μm particle size), column at 25° C. and flow rate of 0.2 ml/min. Injection volume was 15 μl. The mobile phases consisted of water containing 10 mM ammonium acetate pH 7 (mobile phase A) and MeCN-2-propanol 9:1 (mobile phase B).
Results are expressed as fold increase in CoA levels relative to controls (using LC-MS quantification of free CoA).

[2] = Diastereoisomer A (upfield shift in 31P NMR), read-out: t1/2 (h) Human Whole Blood Diastereoisomer A (converted)
[3] = Diastereoisomer B, read-out: t1/2 (h) Human Whole Blood Diastereoisomer B (converted)

Row | half-life at 3 μM [1, 2] | half-life at 3 μM [1, 3] | SMILES | fold induction at 50 µM (PANK2−/− IMR32 cells) | fold induction at 1 µM (PANK2−/− IMR32 cells) | fold induction at 10 µM (PANK2−/− IMR32 cells; compound concentration 10 uM)
1 | 0.31 h | 0.17 h | CC(=O)SCCNC(=O)CCNC(=O)[C@@H]1OP(=O)(OCOC(=O)NCCSC(=O)C(C)(C)C)OCC1(C)C (stereo partly drawn) [R1023, S-(2-((((((4R)-4-((3-((2-(acetylthio)ethyl)amino)-3-oxopropyl)carbamoyl)-5,5-dimethyl-2-oxido-1,3,2-dioxaphosphinan-2-yl)oxy)methoxy)carbonyl)amino)ethyl) 2,2-dimethylpropanethioate] | 17 |  | 
2 |  | > 1 h | COC(=O)[C@@H](N[P@]1(=O)OCC(C)(C)[C@H](C(=O)NCCC(=O)NCCSC(C)=O)O1)C(C)C [R1015, methyl ((2S,4R)-4-((3-((2-(acetylthio)ethyl)amino)-3-oxopropyl)carbamoyl)-5,5-dimethyl-2-oxido-1,3,2-dioxaphosphinan-2-yl)-L-valinate] | 2.1 |  | 
3 | 0.65 h |  | COC(=O)[C@H](CSC(=O)C(C)(C)C)NC(=O)OCOP1(=O)OCC(C)(C)[C@H](C(=O)NCCC(=O)NCCSC(C)=O)O1 (stereo partly drawn) [R1020, methyl N-(((((4R)-4-((3-((2-(acetylthio)ethyl)amino)-3-oxopropyl)carbamoyl)-5,5-dimethyl-2-oxido-1,3,2-dioxaphosphinan-2-yl)oxy)methoxy)carbonyl)-S-pivaloyl-L-cysteinate] | 74.2 |  | 
4 |  | < 0.16 h | CC(=O)SCCNC(=O)CCNC(=O)[C@@H]1O[P@](=O)(OCOC(=O)c2cc(C(C)(C)C)n[nH]2)OCC1(C)C [R1019, (((2R,4R)-4-((3-((2-(acetylthio)ethyl)amino)-3-oxopropyl)carbamoyl)-5,5-dimethyl-2-oxido-1,3,2-dioxaphosphinan-2-yl)oxy)methyl 3-(tert-butyl)-1H-pyrazole-5-carboxylate] |  | 28.8 | 
5 | < 0.16 h | < 0.16 h | CC(=O)OCOP1(=O)OCC(C)(C)[C@H](C(=O)NCCC(=O)NCCSC(C)=O)O1 (stereo partly drawn) [R1022, (((4R)-4-((3-((2-(acetylthio)ethyl)amino)-3-oxopropyl)carbamoyl)-5,5-dimethyl-2-oxido-1,3,2-dioxaphosphinan-2-yl)oxy)methyl acetate] | 114 |  | 
6 | 0.32 h |  | CC(=O)SCCNC(=O)CCNC(=O)[C@@H]1OP(=O)(OCOC(=O)NCCSC(=O)[C@@H](N)C(C)C)OCC1(C)C (stereo partly drawn) [R1021, S-(2-((((((4R)-4-((3-((2-(acetylthio)ethyl)amino)-3-oxopropyl)carbamoyl)-5,5-dimethyl-2-oxido-1,3,2-dioxaphosphinan-2-yl)oxy)methoxy)carbonyl)amino)ethyl) (2S)-2-amino-3-methylbutanethioate] | 3.7 |  | 
7 | 0.41 h | 0.25 h | CC(=O)SCCNC(=O)CCNC(=O)[C@@H]1O[P@](=O)(OCOC(=O)NCCOC(=O)C(C)(C)C)OCC1(C)C [R1031, 2-((((((2R,4R)-4-((3-((2-(acetylthio)ethyl)amino)-3-oxopropyl)carbamoyl)-5,5-dimethyl-2-oxido-1,3,2-dioxaphosphinan-2-yl)oxy)methoxy)carbonyl)amino)ethyl pivalate] | 23.2 |  | 

The remaining lines, values behind:

Row | SMILES | half-life at 3 μM [1, 2] | half-life at 3 μM [1, 3] | fold induction at 50 µM (PANK2−/− IMR32 cells) | fold induction at 1 µM (PANK2−/− IMR32 cells) | fold induction at 10 µM (PANK2−/− IMR32 cells; compound concentration 10 uM)
8 | CC(=O)SCCNC(=O)CCNC(=O)[C@@H]1OP(=O)(OCOC(=O)N[C@@H](CSC(=O)C(C)(C)C)C(=O)O)OCC1(C)C (stereo partly drawn) [R1013, N-(((((4R)-4-((3-((2-(acetylthio)ethyl)amino)-3-oxopropyl)carbamoyl)-5,5-dimethyl-2-oxido-1,3,2-dioxaphosphinan-2-yl)oxy)methoxy)carbonyl)-S-pivaloyl-L-cysteine] | 0.78 h | 0.6 h | 1 |  | 
9 | CC(=O)SCCNC(=O)CCNC(=O)[C@@H]1OP(=O)(OCOC(=O)NC(C)(C)COC(=O)[C@@H](N)C(C)C)OCC1(C)C (stereo partly drawn) [R1012, 2-((((((4R)-4-((3-((2-(acetylthio)ethyl)amino)-3-oxopropyl)carbamoyl)-5,5-dimethyl-2-oxido-1,3,2-dioxaphosphinan-2-yl)oxy)methoxy)carbonyl)amino)-2-methylpropyl L-valinate] | 0.41 h |  | 1.5 |  | 
10 | CC(=O)SCCNC(=O)CCNC(=O)[C@@H]1OP(=O)(OCOC(=O)c2ccnn2C)OCC1(C)C (stereo partly drawn) [R1011, (((4R)-4-((3-((2-(acetylthio)ethyl)amino)-3-oxopropyl)carbamoyl)-5,5-dimethyl-2-oxido-1,3,2-dioxaphosphinan-2-yl)oxy)methyl 1-methyl-1H-pyrazole-5-carboxylate] | 0.42 h | < 0.16 h | 102 |  | 
11 | CC(=O)SCCNC(=O)CCNC(=O)[C@@H]1O[P@@](=O)(OCOC(=O)c2cc(C(C)(C)C)n[nH]2)OCC1(C)C [R1016, (((2S,4R)-4-((3-((2-(acetylthio)ethyl)amino)-3-oxopropyl)carbamoyl)-5,5-dimethyl-2-oxido-1,3,2-dioxaphosphinan-2-yl)oxy)methyl 3-(tert-butyl)-1H-pyrazole-5-carboxylate] |  |  |  | 323 | 
12 | CC(=O)SCCNC(=O)CCNC(=O)[C@@H]1O[P@](=O)(OCOC(=O)c2cc(C(C)(C)C)nn2C)OCC1(C)C [R1044, (((2R,4R)-4-((3-((2-(acetylthio)ethyl)amino)-3-oxopropyl)carbamoyl)-5,5-dimethyl-2-oxido-1,3,2-dioxaphosphinan-2-yl)oxy)methyl 3-(tert-butyl)-1-methyl-1H-pyrazole-5-carboxylate] |  |  |  | 20.3 | 
13 | CC(=O)SCCNC(=O)CCNC(=O)[C@@H]1O[P@@](=O)(OCOC(=O)NCCOC(=O)C(C)(C)C)OCC1(C)C [R1030, 2-((((((2S,4R)-4-((3-((2-(acetylthio)ethyl)amino)-3-oxopropyl)carbamoyl)-5,5-dimethyl-2-oxido-1,3,2-dioxaphosphinan-2-yl)oxy)methoxy)carbonyl)amino)ethyl pivalate] |  |  |  |  | 7.1
14 | COc1ccc(C(=O)OCOP2(=O)OCC(C)(C)[C@H](C(=O)NCCC(=O)NCCSC(C)=O)O2)cc1 (stereo partly drawn) [R1035, (((4R)-4-((3-((2-(acetylthio)ethyl)amino)-3-oxopropyl)carbamoyl)-5,5-dimethyl-2-oxido-1,3,2-dioxaphosphinan-2-yl)oxy)methyl 4-methoxybenzoate] |  |  |  | 18 | 
15 | COC(=O)[C@@H](N[P@@]1(=O)OCC(C)(C)[C@H](C(=O)NCCC(=O)NCCSC(C)=O)O1)C(C)C [R1014, methyl ((2R,4R)-4-((3-((2-(acetylthio)ethyl)amino)-3-oxopropyl)carbamoyl)-5,5-dimethyl-2-oxido-1,3,2-dioxaphosphinan-2-yl)-L-valinate] |  |  | 1.7 |  | 
